According to patent publication US5183821A, “Method for treating leukemias using N-(2-dimethylaminoethyl)-3-amino-1,8-naphthalimide for treating leukemias and solid tumors” (priority 1991, dated 1993):
“Also recorded” adds a separate entry of the source.

Columns and labels:
[1] = tested on: Fischer 344 rats; assay: Single dose rat toxicity study; format: in vivo; settings: for toxicity summary, rats: single dose i.v. (X1)
Protocol: Preclinical toxicity studies of BIDA were completed in CD2F1 Mice, Fischer 344 rats and beagle dogs (4). The animals were injected IV with a single bolus or daily for five days.
(§1) A preclinical toxicology study of benzisoquinolinedione (NSC-308847) was done at Springborn Institute for Bioresearch, Inc. using CD2 F1 mice, Fischer 344 rats and beagle dogs. Animals were injected intravenously on a single dose (X1) or five daily dose (X5) regimen. Bulk drug was titrated with 0.5N HCl to form a salt solution of benzisoquinolinedione at a pH of 5.0-6.5. Sterile 0.9% saline was used for diluting the dosing solutions and was used for the vehicle control animals.
The following summarizes the major organ toxicities resulting from IV administration of benzisoquinolinedione to rats.

[2] = Single dose (X1) mouse range-finding and lethality study; format: in vivo, CD2 F1 mice; settings: mouse, in vivo, iv
Protocol: as §1
(§2) All mortality and toxic signs occurred on day 1 in both the X1 range-finding and lethality studies.
(§3) Defined Doses for the Single Dose Mouse Lethality

[3] = tested on: CD2 F1 mice; assay: as above; format: in vivo
Protocol: as §1, §2, §3

[4] = 15.0 mg/kg, listed as benzisoquinolinedione

In the case of `CN(C)CCN1C(=O)c2cccc3cc(N)cc(c23)C1=O` [Example 9, 1H-Benz[de]isoquinoline-1,3(2H)-dione, 5-amino-2-[2-(dimethylamino)ethyl]], the Mortality / lethality ([1]; 15.0 mg/kg (1/2MELD10), single) is reported as 0/20, the Hematologic findings [1, 4] is reported as “Mild decreases in leukocytes were seen in males on day 4; also recorded: mild decreases in reticulocytes were seen in females” and the Microscopic hematologic lesions [1, 4] is reported as “mild diffuse thymic atrophy in three male rats on day 4; also recorded: No hematologic lesions were seen in either sex on day 29”. For the same molecule, the Microscopic hematologic lesions ([1]; 30.0 mg/kg, day 4 and day 29, listed as benzisoquinolinedione) was “moderate to marked diffuse bone marrow atrophy and mild to moderate diffuse thymic atrophy; also recorded: by day 29, no hematologic lesions were found”, the Reproductive findings ([1]; 30.0 mg/kg, day 29) was “All five long-term male rats showed decreased testicular weights” and the Hematologic findings ([1]; 30.0 mg/kg, listed as benzisoquinolinedione) was “Mild decreases in hemoglobin, hematocrit and red blood cells were seen in females on days 4 and 8, but not in males; also recorded: moderate decreases in reticulocytes and leukocytes on day 4 with moderate increases following on day 8”. For the same molecule, the “mild diffuse testicular atrophy, incidence” value ([1]; 30.0 mg/kg, males, day 29) was “four of five”, the Mortality / lethality ([1]; 35.0 mg/kg (MELD50), single) was 0/20 and the Microscopic hematologic lesions ([1]; 35.0 mg/kg, day 4) was “marked to severe diffuse bone marrow atrophy and mild to moderate diffuse thymic atrophy”. The Reproductive findings ([1]; 35.0 mg/kg, day 29, listed as benzisoquinolinedione) was “All five male rats showed decreased testicular weights and mild diffuse testicular atrophy; also recorded: No reproductive lesions were seen in females”, the Hematologic findings ([1]; 35.0 mg/kg, listed as benzisoquinolinedione) was “Mild decreases in hemoglobin, hematocrit and red blood cells; also recorded: moderate decreases in reticulocytes in both sexes on day 4, followed by moderate increases on day 8; also recorded: Leukopenia (both lymphocytes and neutrophils); also recorded: Both sexes were comparable to controls on days 22 and 29” and the Mortality / lethality ([1]; MELD10, single, 30.0 mg/kg in text, 20.00 in Table 4) was 0/20. The “toxicity summary, rats” value ([1]; listed as BIDA) was “reproductive system toxicity was seen at doses of MELD 10 and higher; also recorded: decreased testicular weights and mild diffuse testicular atrophy”, the “toxicity summary, rats” value ([1]; listed as benzisoquinolinedione) was “toxic on both schedules (X1, X5) to the hematopoietic system and to the male reproductive system” and the LD50 ([2]; combined sexes) was 69.1 mg/kg. For the same molecule, the LD50 ([2]; female) was 71.4 mg/kg, the LD50 ([2]; male) was 67.1 mg/kg and the “body weight, mice” value ([3]; X1) was “Only slight weight loss”. For the same molecule, the “time of deaths, mice” value ([3]; X1) was “within a few minutes after dosing”, the “toxic signs, mice” value ([3]; X1, listed as benzisoquinolinedione) was “labored breathing, struggling and exophthalmus; also recorded: loss of locomotor ability, decreased activity and rough hair coats; also recorded: All surviving animals were normal within a few hours” and the LD50 ([3]; combined sexes) was 207.3 mg/m^2. For the same molecule, the “Slope (lethality)” value ([3]; combined sexes) was 23.1, the LD10 ([3]; female) was 62.2 mg/kg and the LD50 ([3]; female) was 214.2 mg/m^2. For the same molecule, the “Slope (lethality)” value ([3]; female) was 21.2, the LD50 ([3]; male) was 201.3 mg/m^2 and the “Slope (lethality)” value ([3]; male) was 26.0.
